According to article PMC8762250, “Identification of Novel Chemical Scaffolds that Inhibit the Growth of Mycobacterium tuberculosis in Macrophages” (Frontiers in Pharmacology, 2022):
Converted amounts (≈) assume the structure as drawn. Like-named read-outs stand apart in the source and are kept apart here. Marks after values point to notes of the source that are not given here.

Assays:
[1] = tested on: M. tuberculosis; test: Minimum inhibitory concentration in liquid medium (axenic culture); type: cell-based, Mycobacterium tuberculosis; conditions: Mycobacterium tuberculosis; for IC50: read-out: Anti-tubercular activity in axenic culture IC50
[2] = tested on: RAW264.7 cells; test: Macrophage viability in the same high content assay; conditions: for Intracellular RAW TC50 / Intracellular activity Cytotoxicity TC50: infected RAW264.7 macrophages; for Intracellular RAW TC50: SAR tables 4-8; for selectivity index (SI): HepG2 cells and/or macrophages, cell line not specified; for Intracellular activity Cytotoxicity TC50: 72 h; for selectivity index (TC50/IC50): macrophage TC50 / intracellular IC50
[3] = HepG2 cytotoxicity (CellTiter-Glo, 72 h); type: cell-based, human; conditions: human
Procedure: (§1) Cytotoxicity against HepG2 cells was measured after 72 h. Cells were seeded in 384-well plates at 1,800 cells per well. Compounds were added as a 10-point three-fold serial dilution after 24 h (final assay concentration of 1% DMSO). CellTiter-Glo® reagent (Promega) was added and relative luminescence units (RLU) measured. Data were normalized to the DMSO controls. Curves were fitted using the Levenberg–Marquardt algorithm; TC50 was calculated as the compound concentration required to reduce cell viability by 50%.
(§2) We further evaluated cytotoxicity using the HepG2 cell line cultured with either glucose or galactose in the medium (Table 2). HepG2 cells cultured with galactose rely on mitochondrial oxidative phosphorylation rather than glycolysis which increases their susceptibility to mitochondrial toxicants allowing us to identify compounds with mitochondrial toxicity ([Kamalian et al., 2015]).

[4] = tested on: RAW264.7 cells
[5] = tested on: M. tuberculosis; test: High content assay of intracellular M. tuberculosis growth in infected RAW264.7 macrophages; type: cell-based, Mycobacterium tuberculosis H37Rv-LP
Procedure: Compounds were obtained in 384-well plates as 10 mM DMSO stock solutions and tested as described ([Manning et al., 2017]). Briefly, assay plates were prepared in clear bottom, black 384-well plates with 30 μl cRPMI and 0.6 μl compound in columns 3–22 (final concentration of 10 μM compound, 1% DMSO). […] INH and STA were also included in dose response on each plate. RAW264.7 cells were infected with M. tuberculosis DREAM8 as described ([Manning et al., 2017]) at an MOI of 1 for 24 h and extracellular bacteria removed by washing. Cells were recovered using Accumax, harvested, washed and resuspended in serum-free RPMI; 30 μl of infected cells were dispensed into each well at 3,300 cells/well. Plates were incubated for 72 h, 10 μl of 5X SYBR Green I was added and plates were imaged with an ImageXpress Micro High Content Screening System (Molecular Devices) using a ×4 objective and FITC and Texas Red channels. MetaXpress was used to analyze images. The integrated intensity of M. tuberculosis or macrophages was calculated for each well. Growth inhibition was calculated for each test well by normalizing to the average integrated intensity of the DMSO control wells. IC50 was calculated as the compound concentration required to reduce bacterial growth by 50%. TC50 was calculated as the compound concentration required to reduce macrophage viability by 50%.

[6] = tested on: HepG2 cells; test: HepG2 cytotoxicity (CellTiter-Glo, 72 h); type: cell-based, human; conditions: for selectivity (SI) for HepG2: HepG2 cytotoxicity / intracellular IC50; for HepG2 cytotoxicity TC50 Galactose / HepG2 cytotoxicity TC50 Glucose: human, 72 h
Procedure: as §1, §2

[7] = tested on: M. tuberculosis; set-up: method as in PMID 30466326; conditions: inhibitor of M. tuberculosis ref 20; cited from earlier work
[8] = tested on: non-replicating M. tuberculosis; set-up: method as in Christophe et al., 2009; conditions: ref Christophe et al., 2009; cited from earlier work
[9] = axenic culture, SAR tables 4-8, read-out: Extracellular IC90
[10] = HepG2 cytotoxicity IC50 Galactose
[11] = HepG2 cytotoxicity IC50 Glucose
[12] = 120 h, extracellular, 5 days, OD590
[13] = 120 h, extracellular, 5 days, OD590, read-out: Anti-tubercular activity in axenic culture IC90
[14] = Mycobacterium tuberculosis, RAW264.7, 72 h, M. tuberculosis in RAW264.7 cells, MOI 1, 72 h, read-out: Intracellular activity Anti-tubercular activity IC50
[15] = Mycobacterium tuberculosis, RAW264.7, in RAW264.7 macrophages, SAR tables 4-8, read-out: Intracellular Mtb IC50

Row | Compound | IC90 [1, 9] | Intracellular RAW TC50 [2] | IC50 at 72 h [3, 10] | IC50 at 72 h [3, 11] | IC50 [1, 12] | IC90 [1, 13] | Intracellular activity Cytotoxicity TC50 [2] | IC50 [5, 14] | HepG2 cytotoxicity TC50 Galactose [6] | HepG2 cytotoxicity TC50 Glucose [6] | IC50 [5, 15] | further results
1 | O=C(Nc1ccc(Cl)cc1)Nc1ccc(Nc2ccccc2)cc1 [TPN-0073077] | > 20 µM | 68 ± 23 ^b µM | > 100 µM | > 100 µM | – | – | – | – | – | – | – | cytotoxicity to macrophages [4]: cytotoxic
2 | CCc1ccccc1NC(=O)c1c(NC(=O)c2cccc(Cl)c2)sc2c1CCC2 [TPN-0073585] | > 5 µM | 9.4 ± 1.9 ^c µM | > 25 µM | > 25 µM | > 5 µM | > 5 µM | 9.4 ± 1.9 ^c µM | 0.4 ± 0.11 µM | >25 ^c µM | >25 ^c µM | – | selectivity index (SI) [2]: > 10; IC50 ([5]; in RAW264.7 macrophages, SAR tables 4-8, listed as 29, read-out: Intracellular Mtb IC50): < 5 µM; selectivity (SI) for HepG2 [6]: > 60
3 | O=C(COc1ccccc1)NC12CC3CC(CC(C3)C1)C2 [TPN-0006211] | > 20 µM | 38 ± 6.0 ^b µM | 43 ± 1 µM | 53 ± 1.5 µM | > 20 µM | > 20 µM | 38 ± 6.0 ^b µM | 7.6 ± 3.5 µM | 43 ± 1 ^b µM | 53 ± 1.5 ^b µM | 7.6 ± 3.5 µM | –
4 | O=C(Nc1ccc(Cl)c(Cl)c1)c1cccs1 [TPN-0073578] | > 20 µM | 11 ± 2.2 ^c µM | 4.7 ± 0.5 µM | 3.9 ± 1.1 µM | > 20 µM | > 20 µM | 11 ± 2.2 ^d µM | 1.7 ± 0.85 µM | 4.7 ± 0.54 ^c µM | 3.9 ± 1.1 ^c µM | – | IC50 ([5]; in RAW264.7 macrophages, SAR tables 4-8, listed as 27, read-out: Intracellular Mtb IC50): < 5 µM
5 | COc1ccc(OCC(=O)Nc2sc3c(c2C(=O)NC2CCS(=O)(=O)C2)CCCC3)cc1 (centres unmarked) [TPN-0073584] | > 20 µM | >100 ^c µM | > 100 µM | > 100 µM | > 20 µM | > 20 µM | >100 ^b µM | 5.1 ± 1.7 µM | >100 ^c µM | >100 ^c µM | 5.1 ± 1.7 µM | selectivity index (SI) [2]: > 10; selectivity (SI) for HepG2 [6]: 20
6 | O=C(CSc1ccccc1)Nc1ccc(Br)cc1 [TPN-0006205] | > 20 µM | 57 ± 24 ^c µM | > 100 µM | > 100 µM | > 20 µM | > 20 µM | 57 ± 23 ^c µM | 1.4 ± 0.64 µM | >100 ^c µM | >100 ^e µM | 1.4 ± 0.6 µM | selectivity index (TC50/IC50) [2]: 40; activity against intracellular M. tuberculosis [5]: good intracellular activity
7 | CCc1ccc(OCC(=O)Nc2cccc3c2C(=O)OC3)cc1 [TPN-0006204] | > 20 µM | >100 ^a µM | 47 ± 17 µM | 59 ± 10 µM | > 20 µM | > 20 µM | >100 ^b µM | 11 ± 0.5 µM | 47 ± 17 ^e µM | 59 ± 10 ^d µM | 10 ± 0.5 µM | –
8 | Cc1ccc(SCC(=O)Nc2ccc(Br)c(C)c2)cc1 [TPN-0006207] | > 20 µM | >100 ^b µM | > 100 µM | > 100 µM | > 20 µM | > 20 µM | >100 ^b µM | 6.3 ± 0.3 µM | >100 ^b µM | >100 ^b µM | 6.3 ± 0.3 µM | activity against intracellular M. tuberculosis [5]: good intracellular activity
9 | CCOc1ccc(NC(=S)Nc2ccc(C)c(C#N)c2)cc1 [TPN-0073063] | 9.5 ± 3.2 µM | 47 ± 28 ^g µM | 35 ± 6.6 µM | 64 ± 40 µM | 5 ± 1.5 µM | 9.5 ± 3.2 µM | 47 ± 28 ^f µM | 0.25 ± 0.23 µM | 34 ± 6.5 ^e µM | 40 ± 11 ^e µM | – | selectivity index (TC50/IC50) [2]: > 150; IC50 ([5]; Mycobacterium tuberculosis, RAW264.7, read-out: Intracellular Mtb IC50, in RAW264.7 macrophages, SAR tables 4-8): 0.3 ± 0.2 µM
10 | O=C(CSc1ccc(Cl)cc1)Nc1ccc(F)c(Cl)c1 [TPN-0006216] | > 20 µM | >100 ^b µM | 33 ± 4 µM | 44 ± 2 µM | > 20 µM | > 20 µM | >100 ^d µM | 2.8 ± 0.78 µM | 33 ± 4 ^b µM | 44 ± 2 ^b µM | 2.4 ± 0.5 µM | Intracellular RAW TC50 ([2]; listed as 12): > 100 µM; selectivity index (TC50/IC50) [2]: > 42; activity against intracellular M. tuberculosis [5]: good intracellular activity; IC90 [7]: 6.9 µg/mL (≈ 20.9 µM)
11 | Cc1ccc(OCC(=O)N2CCCc3ccccc32)cc1 [TPN-0006208] | > 20 µM | 86 ± 1.0 ^b µM | > 100 µM | > 100 µM | – | – | – | – | – | – | 13 µM | activity against non-replicating M. tuberculosis [8]: had activity
